Reference: patent US20090281054A1, “COMPOSITIONS AND METHODS COMPRISING CAPURAMYCIN ANALOGUES” (priority 2008, published 2009)
≈ marks a conversion by molar mass, not a printed value. Read-outs that look alike come from different tables or passages of the source.

Tests used:
M. avium complex (MAC) = test: MIC by microdilution method in 7H9 broth; type: cell-based; conditions: for MIC90: value in square brackets
MAC = test: Synergy by checkerboard titration (microdilution); type: cell-based, M. avium complex; conditions: for MIC: Mycobacterium avium, drug alone
[1] = tested on: M. smegmatis (MSMG; MC2155); test: MIC by microdilution method in 7H9 broth; type: cell-based; conditions: 72 hr
[2] = tested on: M. kansaii (MKN; ATCC12478 & 35775); test: MIC by microdilution method in 7H9 broth; type: cell-based, M. kansasii
[3] = tested on: M. abscessus (MAB; ATCC 700869); test: MIC by microdilution method in 7H9 broth; type: cell-based; conditions: MAB 700869
MTB in J774A.1 cells = test: Intracellular activity of SQ641 with efflux pump blockers; type: cell-based, Mycobacterium tuberculosis; conditions: J774A.1 cells; VE and CsA at 10 μM
translocase I = translocase I (Escherichia coli, UniProt P0A6W3); test: IC50 against translocase I; type: biochemical
[4] = Mycobacterium avium, MAC strain 100, read-out: MIC
[5] = Mycobacterium avium, MAC strain 101, read-out: MIC
[6] = Mycobacterium avium, MAC strain 104, read-out: MIC
[7] = Mycobacterium avium, MAC strain 109, read-out: MIC
[8] = Mycobacterium avium, MAC strain A5, read-out: MIC
[9] = Mycobacterium avium, MAC strain JSH1, read-out: MIC
[10] = Mycobacterium avium, MAC strain NIH C1-1, read-out: MIC
[11] = Mycobacterium avium, MAC strain NIH C1-2, read-out: MIC
[12] = Mycobacterium avium, MAC strain NIH C1-3, read-out: MIC
[13] = Mycobacterium avium, MAC strain NIH C1-4, read-out: MIC
[14] = Mycobacterium avium, MAC isolates, read-out: MIC90
[15] = Mycolicibacterium smegmatis, MC2155|MC^2155, MSMG MC^2155, read-out: MIC
[16] = Mycobacterium kansasii, ATCC 12478 / ATCC 35775, MKN ATCC35775, read-out: MIC
[17] = Mycobacterium kansasii, MKN ATCC12478, read-out: MIC
[18] = Mycobacteroides abscessus, ATCC700869, read-out: MIC
[19] = Mycobacterium avium, 336 h, MAC isolates, 2 wk, read-out: MIC (range)

Chain of translocase I (P0A6W3 whole entry): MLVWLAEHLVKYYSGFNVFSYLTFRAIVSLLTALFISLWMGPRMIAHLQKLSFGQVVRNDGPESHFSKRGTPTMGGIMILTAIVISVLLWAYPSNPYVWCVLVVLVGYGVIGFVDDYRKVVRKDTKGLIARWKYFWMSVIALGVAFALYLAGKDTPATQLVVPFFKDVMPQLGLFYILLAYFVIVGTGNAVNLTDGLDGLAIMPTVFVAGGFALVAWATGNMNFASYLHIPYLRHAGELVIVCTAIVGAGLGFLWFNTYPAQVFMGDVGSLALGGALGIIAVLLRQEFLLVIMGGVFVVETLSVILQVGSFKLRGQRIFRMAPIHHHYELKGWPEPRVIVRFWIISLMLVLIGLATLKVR

Compound	MIC (M. avium complex (MAC); [4]) [µg/mL]	MIC (M. avium complex (MAC); [5]) [µg/mL]	MIC (M. avium complex (MAC); [6]) [µg/mL]	MIC (M. avium complex (MAC); [7]) [µg/mL]	MIC (M. avium complex (MAC); [8]) [µg/mL]	MIC (M. avium complex (MAC); [9]) [µg/mL]	MIC (M. avium complex (MAC); [10]) [µg/mL]	MIC (M. avium complex (MAC); [11]) [µg/mL]	MIC (M. avium complex (MAC); [12]) [µg/mL]	MIC (M. avium complex (MAC); [13]) [µg/mL]	MIC90 (M. avium complex (MAC); [14]) [µg/mL]	MIC [1, 15] [µg/mL]	MIC [2, 16] [µg/mL]	MIC [2, 17] [µg/mL]	MIC [3, 18] [µg/mL]	other results
NCC[C@H](O)C(=O)N[C@@H]1C[C@H](N)[C@@H](O[C@H]2O[C@H](CN)[C@@H](O)[C@H](O)[C@H]2O)[C@H](O)[C@H]1O[C@H]1O[C@H](CO)[C@@H](O)[C@H](N)[C@H]1O [AMK, amikacin, reference compound]	8 (≈ 13.7 µM)	2 (≈ 3.42 µM)	16 (≈ 27.3 µM)	1 (≈ 1.71 µM)	4 (≈ 6.83 µM)	8 (≈ 13.7 µM)	8 (≈ 13.7 µM)	32 (≈ 54.6 µM)	8 (≈ 13.7 µM)	4 (≈ 6.83 µM)	16 (≈ 27.3 µM)	0.5 (≈ 0.854 µM)	2 (≈ 3.42 µM)	2 (≈ 3.42 µM)	4 (≈ 6.83 µM)	MIC Combination (MAC; MAC A5, combination SQ641 + AMK): 0.5 µg/mL; MIC Combination (MAC; MAC JSH1, combination SQ641 + AMK): 8.0 µg/mL; MIC Combination (MAC; MAC NIH C1-1, combination SQ641 + AMK): 4.0 µg/mL; MIC (MAC; MAC A5): 2 µg/mL; MIC (MAC; MAC JSH1): 16 µg/mL; MIC (MAC; MAC NIH C1-1): 8 µg/mL
O=C(O)c1cn(C2CC2)c2cc(N3CCNCC3)c(F)cc2c1=O [CIP, reference compound]	–	–	–	–	–	–	–	–	–	–	–	–	–	–	–	MIC range (M. avium complex (MAC); MAC isolates, 2 wk): 0.125 to 32 µg/mL; MIC90 (M. avium complex (MAC); MAC isolates): 2 µg/mL (≈ 6.04 µM); MIC ([1]; MSMG MC^2155): 0.5 µg/mL (≈ 1.51 µM); MIC ([2]; MKN ATCC12478): 2 µg/mL (≈ 6.04 µM); MIC ([2]; MKN ATCC35775): 0.25 µg/mL (≈ 0.754 µM); MIC [3]: >32 µg/mL
CC[C@H]1OC(=O)[C@H](C)[C@@H](O[C@H]2C[C@@](C)(OC)[C@@H](O)[C@H](C)O2)[C@H](C)[C@@H](O[C@@H]2O[C@H](C)C[C@H](N(C)C)[C@H]2O)[C@](C)(OC)C[C@@H](C)C(=O)[C@H](C)[C@@H](O)[C@]1(C)O [CLA, clarithromycin, reference compound]	0.25 (≈ 0.334 µM)	0.125 (≈ 0.167 µM)	0.5 (≈ 0.668 µM)	0.062 (≈ 0.0829 µM)	0.125 (≈ 0.167 µM)	2 (≈ 2.67 µM)	1 (≈ 1.34 µM)	0.25 (≈ 0.334 µM)	32 (≈ 42.8 µM)	1 (≈ 1.34 µM)	2 (≈ 2.67 µM)	2 (≈ 2.67 µM)	0.25 (≈ 0.334 µM)	0.25 (≈ 0.334 µM)	> 32	MIC (M. avium complex (MAC); [19]): 0.062 to 32 µg/mL (≈ 0.0829 to 42.8 µM); MIC Combination (MAC; MAC A5, combination SQ641 + CLA): 0.031 µg/mL; MIC Combination (MAC; MAC JSH1, combination SQ641 + CLA): 1 µg/mL; MIC Combination (MAC; MAC NIH C1-1, combination SQ641 + CLA): 2.0 µg/mL; MIC (MAC; MAC A5): 0.125 µg/mL; MIC (MAC; MAC JSH1): 1 µg/mL; MIC (MAC; MAC NIH C1-1): 2 µg/mL
Cc1ccc(C)c(OCCCC(C)(C)C(=O)O)c1 [GF, gemfibrozil, reference compound]	–	–	–	–	–	–	–	–	–	–	–	–	–	–	–	Effect of efflux pump blocker on intracellular activity of SQ641 against MTB (MTB in J774A.1 cells): only moderate effects
COc1c(N2C[C@@H]3CCCN[C@@H]3C2)c(F)cc2c(=O)c(C(=O)O)cn(C3CC3)c12 [MOX, moxifloxacin, reference compound]	–	–	–	–	–	–	–	–	–	–	–	–	0.031 (≈ 0.0772 µM)	0.125 (≈ 0.311 µM)	> 32	MIC ([1]; Mycolicibacterium smegmatis, MC2155|MC^2155, read-out: MIC): 0.125 µg/mL (≈ 0.311 µM)
CCCN(CCC)S(=O)(=O)c1ccc(C(=O)O)cc1 [PB, probenecid, reference compound]	–	–	–	–	–	–	–	–	–	–	–	–	–	–	–	Effect of efflux pump blocker on intracellular activity of SQ641 against MTB (MTB in J774A.1 cells): only moderate effects
CO[C@H]1[C@@H](O)[C@H](n2ccc(=O)[nH]c2=O)O[C@@H]1[C@@H](O[C@H]1OC(C(=O)Nc2ccc(C(F)(F)F)cc2)=C[C@H](O)[C@@H]1O)C(N)=O [RKS2033]	2 (≈ 3.32 µM)	2 (≈ 3.32 µM)	1 (≈ 1.66 µM)	1 (≈ 1.66 µM)	2 (≈ 3.32 µM)	2 (≈ 3.32 µM)	4 (≈ 6.64 µM)	2 (≈ 3.32 µM)	8 (≈ 13.3 µM)	2 (≈ 3.32 µM)	4 (≈ 6.64 µM)	4 (≈ 6.64 µM)	2 (≈ 3.32 µM)	16 (≈ 26.6 µM)	2 (≈ 3.32 µM)	MIC (M. avium complex (MAC); [19]): 1 to 8 µg/mL (≈ 1.66 to 13.3 µM); IC50 against translocase I (translocase I): 30 ng/mL (≈ 0.0498 µM)
COC(=O)C1=C[C@H](O)[C@H](O)[C@@H](O[C@@H](C(N)=O)[C@H]2O[C@@H](n3ccc(=O)[nH]c3=O)[C@H](O)[C@@H]2OC)O1 [RS 120029]	32 (≈ 67.6 µM)	> 32	32 (≈ 67.6 µM)	32 (≈ 67.6 µM)	32 (≈ 67.6 µM)	> 32	> 32	> 32	> 32	> 32	32 (≈ 67.6 µM)	> 32	> 32	> 32	> 32	–
